{"source": "paper PMC5584980", "about": "“Deciphering HLA-I motifs across HLA peptidomes improves neo-antigen predictions and identifies allostery regulating HLA specificity” (PLoS Computational Biology, 2017)", "test_system": "HLA-B14:02 wt", "test": "Binding stability assay, refolded HLA-I/peptide complex, ELISA", "set-up": "species or system human", "procedure": "W97R mutation was introduced into HLA-B14:02 wt by overlap extension PCR and confirmed by DNA sequencing. BL21(DE3)pLys bacterial cells were used to produce HLA-B14:02 wt and W97R as inclusion bodies. Four peptides with histidine or arginine at P2 (A[H/R]TKPRPAL, G[H/R]YDRSKSL, A[H/R]FAKSISL, H[H/R]FEKAVTL) were synthesized at the Peptide Facility (UNIL, Lausanne) with free N and C-termini (1mg of each peptide, > 80% purity). Peptides with histidine at P2 come from our HLA peptidomics data and were assigned to HLA-B15:18 by our mixture model algorithm. Based on our analysis of HLA sequence and structure, peptides with histidine at P2 are predicted to interact with HLA-B14:02 W97R, while peptides with arginine at P2 are predicted to bind better HLA-B14:02 wt.\nSynthetic peptides were incubated separately with denaturated […] mutant refolded by dilution in the presence of biotinylated beta-2 microglobulin proteins at temperature T = 4°C for 48 hours. […] Negative controls consist of absence of peptides. koff were determined by fitting exponential curves to the light intensity values obtained by ELISA at different time points. […] For two peptides showing exceptionally high binding stability, only lower bounds on half-lives could be determined (dashed lines in Fig 5D)."}
{"sequence": "AHTKPRPAL [synthetic HLA-B15:18 ligand from HLA peptidomics data, histidine at P2, free N and C-termini]", "values": [{"measurement": "binding of the peptide", "result": "fully abolished"}]}
